Structures can show the parent of a compound that is named as a salt.
Experiments:
[1] = biological target: Met (phospho-Met, HGF-stimulated PC-3 prostate cancer cells) (Homo sapiens (Human), UniProt P08581); test: Met autophosphorylation ELISA in PC-3 cells (Example F); type: cell-based; conditions: cellular activity; Met autophosphorylation ELISA in PC-3 cells; read-out: c-Met IC50
Method in brief: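 IC50 values derive from a 4-parameter logistic fit of phospho-Met (panTyr) sandwich ELISA signals in PC-3 lysates, scaled between DMSO and reference-inhibitor wells. Cells, starved 3 h in serum-free medium, had 1 h compound exposure (8 doses, 0.3% DMSO) before 10 min stimulation with 100 ng/mL HGF.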

[2] = biological target: Human MER (residues 528-999) (Homo sapiens (Human), UniProt Q12866); test: Human Mer kinase assay, HTRF KinEase (Example C-2); type: biochemical; conditions: protocol of Example C-2 (other compounds)
Method in brief: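 Recombinant MER 528-999 (1 ng/well) in buffer with 5 mM MgCl2 and 1 mM DTT was reacted with biotinylated peptide and ATP at Km (40 μM) for 60 min at room temperature. EDTA stop with SA-XL665 and Eu3+ TK antibody, then 665/620 nm HTRF read; IC50 from 4-parameter fit.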

Sequence of Human MER (residues 528-999) (Q12866 528-999): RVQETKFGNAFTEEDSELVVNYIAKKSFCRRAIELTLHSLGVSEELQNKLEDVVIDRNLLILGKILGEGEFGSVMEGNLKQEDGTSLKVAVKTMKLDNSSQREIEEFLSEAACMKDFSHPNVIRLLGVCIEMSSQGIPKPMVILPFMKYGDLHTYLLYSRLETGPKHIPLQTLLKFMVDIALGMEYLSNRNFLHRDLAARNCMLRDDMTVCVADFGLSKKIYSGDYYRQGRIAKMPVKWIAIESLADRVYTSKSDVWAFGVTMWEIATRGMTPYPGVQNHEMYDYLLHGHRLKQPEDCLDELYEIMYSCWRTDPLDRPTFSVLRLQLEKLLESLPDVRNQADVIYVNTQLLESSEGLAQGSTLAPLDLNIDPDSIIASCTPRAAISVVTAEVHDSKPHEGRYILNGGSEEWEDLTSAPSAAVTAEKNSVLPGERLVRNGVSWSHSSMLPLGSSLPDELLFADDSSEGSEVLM
Sequence of Met (phospho-Met, HGF-stimulated PC-3 prostate cancer cells) (P08581 25-1390): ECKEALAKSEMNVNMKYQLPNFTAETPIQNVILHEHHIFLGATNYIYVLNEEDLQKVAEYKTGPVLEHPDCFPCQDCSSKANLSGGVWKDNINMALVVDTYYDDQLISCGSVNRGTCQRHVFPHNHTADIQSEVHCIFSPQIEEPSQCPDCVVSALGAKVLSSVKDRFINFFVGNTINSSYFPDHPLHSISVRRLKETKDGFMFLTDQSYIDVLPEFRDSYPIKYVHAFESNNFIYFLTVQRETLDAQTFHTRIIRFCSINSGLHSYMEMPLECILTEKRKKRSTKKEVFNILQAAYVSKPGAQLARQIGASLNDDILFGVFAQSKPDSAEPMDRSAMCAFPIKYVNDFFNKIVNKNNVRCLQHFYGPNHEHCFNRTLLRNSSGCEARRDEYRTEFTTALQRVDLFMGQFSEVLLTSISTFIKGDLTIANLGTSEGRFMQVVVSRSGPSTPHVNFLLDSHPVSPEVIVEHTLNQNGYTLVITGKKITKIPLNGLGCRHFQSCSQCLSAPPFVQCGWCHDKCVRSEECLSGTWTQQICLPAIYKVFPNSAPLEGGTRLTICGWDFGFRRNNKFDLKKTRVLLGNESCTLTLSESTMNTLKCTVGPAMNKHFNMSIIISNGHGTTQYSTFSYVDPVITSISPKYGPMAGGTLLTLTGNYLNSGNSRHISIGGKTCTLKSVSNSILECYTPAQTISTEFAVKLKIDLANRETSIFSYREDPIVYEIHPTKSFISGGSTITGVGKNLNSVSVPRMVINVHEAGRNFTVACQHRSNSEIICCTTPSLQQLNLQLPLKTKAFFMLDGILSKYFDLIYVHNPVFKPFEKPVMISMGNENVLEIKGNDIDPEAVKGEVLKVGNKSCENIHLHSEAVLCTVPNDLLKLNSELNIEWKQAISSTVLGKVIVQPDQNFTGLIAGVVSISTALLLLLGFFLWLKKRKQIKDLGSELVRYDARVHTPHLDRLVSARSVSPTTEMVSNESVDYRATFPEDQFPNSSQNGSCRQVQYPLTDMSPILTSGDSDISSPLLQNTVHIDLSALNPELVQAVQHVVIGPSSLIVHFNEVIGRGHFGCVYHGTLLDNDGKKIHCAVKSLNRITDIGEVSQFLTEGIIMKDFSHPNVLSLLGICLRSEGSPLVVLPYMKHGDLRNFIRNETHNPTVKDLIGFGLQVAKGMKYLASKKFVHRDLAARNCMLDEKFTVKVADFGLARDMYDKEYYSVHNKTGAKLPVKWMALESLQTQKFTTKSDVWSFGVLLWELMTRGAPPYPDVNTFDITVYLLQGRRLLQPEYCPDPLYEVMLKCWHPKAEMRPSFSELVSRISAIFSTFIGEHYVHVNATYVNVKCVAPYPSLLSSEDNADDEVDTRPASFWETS

COc1cc2nccc(Oc3ccc(NC(=O)c4c(C)nc(C)c(-c5ccc(F)cc5C)c4O)cc3F)c2nc1OC [Compound 177, N-[4-[(6,7-Dimethoxy-1,5-naphthyridin-4-yl)oxy]-3-fluorophenyl]-5-(4-fluoro-2-methylphenyl)-4-hydroxy-2,6-dimethylpyridine-3-carboxamide] gave an IC50 [1] of less than 100 nM and an IC50 [2] of less than 100 nM.

In the case of COc1cnc2c(Oc3ccc(NC(=O)c4cn(CC(F)(F)F)c(C)c(-c5ccc(F)cc5)c4=O)cc3F)ccnc2c1 [Compound 261, N-[3-Fluoro-4-[(7-methoxy-1,5-naphthyridin-4-yl)oxy]phenyl]-5-(4-fluorophenyl)-6-methyl-4-oxo-1-(2,2,2-trifluoroethyl)pyridine-3-carboxamide], the IC50 [1] is reported as less than 100 nM and the IC50 [2] is reported as less than 100 nM.

With COc1cnc2c(Oc3ccc(NC(=O)c4nn(C)c(C)c(-c5ccc(F)cc5)c4=O)cc3)ccnc2c1 [Compound 251, 5-(4-Fluorophenyl)-N-[4-[(7-methoxy-1,5-naphthyridin-4-yl)oxy]phenyl]-1,6-dimethyl-4-oxopyridazine-3-carboxamide] the IC50 [1] was less than 100 nM and the IC50 [2] was less than 100 nM.

COc1cnc2c(Oc3ccc(NC(=O)c4c(C)ncc(-c5ccc(F)cc5)c4O)cc3)ccnc2c1 [Compound 236, 5-(4-Fluorophenyl)-4-hydroxy-N-[4-[(7-methoxy-1,5-naphthyridin-4-yl)oxy]phenyl]-2-methylpyridine-3-carboxamide] gave an IC50 [1] of less than 100 nM and an IC50 [2] of less than 100 nM.

Compound COCCOc1nc2c(Oc3ccc(NC(=O)c4ccc(C)n(-c5ccc(F)cc5)c4=O)cc3F)ccnc2cc1OC [Compound 227, N-[3-Fluoro-4-[[7-methoxy-6-(2-methoxyethoxy)-1,5-naphthyridin-4-yl]oxy]phenyl]-1-(4-fluorophenyl)-6-methyl-2-oxopyridine-3-carboxamide] has an IC50 [1] of less than 100 nM and an IC50 [2] of less than 100 nM.

COCc1nc(C)c(-c2ccc(F)cc2C)c(O)c1C(=O)Nc1ccc(Oc2ccnc3ccc(OC)nc23)c(F)c1 [Compound 195, N-[3-Fluoro-4-[(6-methoxy-1,5-naphthyridin-4-yl)oxy]phenyl]-5-(4-fluoro-2-methylphenyl)-4-hydroxy-2-(methoxymethyl)-6-methylpyridine-3-carboxamide] was tested, and the IC50 [1] was less than 100 nM and the IC50 [2] was less than 100 nM.

COc1cc2nccc(Oc3ccc(NC(=O)c4c(C)ncc(-c5ccc(F)cc5)c4O)cc3)c2nc1OC [Compound 235, N-[4-[(6,7-Dimethoxy-1,5-naphthyridin-4-yl)oxy]phenyl]-5-(4-fluorophenyl)-4-hydroxy-2-methylpyridine-3-carboxamide] gave an IC50 [1] of less than 100 nM and an IC50 [2] of less than 100 nM.

Compound CCc1nc(C)c(-c2ccc(F)cc2C)c(O)c1C(=O)Nc1ccc(Oc2ccnc3cc(OC)c(OC)nc23)cc1 [Compound 203, N-[4-[(6,7-Dimethoxy-1,5-naphthyridin-4-yl)oxy]phenyl]-2-ethyl-5-(4-fluoro-2-methylphenyl)-4-hydroxy-6-methylpyridine-3-carboxamide] has an IC50 [1] of less than 100 nM and an IC50 [2] of less than 100 nM.

In the case of COCCOc1nc2c(Oc3ccc(NC(=O)c4c(COC)nc(C)c(-c5ccc(F)cc5C)c4O)cc3F)ccnc2cc1OC [Compound 201, N-[3-Fluoro-4-[[7-methoxy-6-(2-methoxyethoxy)-1,5-naphthyridin-4-yl]oxy]phenyl]-5-(4-fluoro-2-methylphenyl)-4-hydroxy-2-(methoxymethyl)-6-methylpyridine-3-carboxamide], the IC50 [1] is reported as less than 100 nM and the IC50 [2] is reported as less than 100 nM.

COc1cc2nccc(Oc3ccc(NC(=O)c4cn(C(C)C)c(C)c(-c5cccc(F)c5)c4=O)cc3F)c2nc1OC [Compound 30, N-[4-[(6,7-Dimethoxy-1,5-naphthyridin-4-yl)oxy]-3-fluorophenyl]-5-(3-fluorophenyl)-6-methyl-4-oxo-1-propan-2-ylpyridine-3-carboxamide hydrochloride] was tested, and the IC50 [1] was less than 100 nM and the IC50 [2] was less than 100 nM.
